Patent EP0164635A2, “Imidazothiazolemethylene-acetohydrazide derivatives, preparation thereof and pharmaceutical composition having diuretic activity” (MEDIOLANUM FARMACEUTICI s.r.l., priority 1984, dated 1985)

Legend:
rats = assay: Diuretic activity: urinary sodium excretion over 6 hours after oral administration; format: in vivo, rat; settings: read-out: Diuretic effect %; for response vs control in vivo at 20 mg/kg: dose 20 mg/kg oral
Protocol: The first series of tests was carried out to rats orally administered with distilled water (25 ml/kg) containing the product under test, previously suspended in Tween 80 (1% v/v with respect to water). Urina of the 6 hours following the treatment was collected in order to measure the sodium concentration, by means of atomic absorption. The ratio of the meq/100 g of body weight of the treated animals to the corresponding ratio of the meq/100 g of body weight of the control animals (treated with the sole vehicle) was calculated, in order to determine the dose of the test compound doubling or trebling or anyway increasing the sodium excretion.

in vivo = settings: rat
[1] = rat, sodium urinary excretion in 6 h vs controls (control = 100)

SMILES | response vs control in vivo at 2.5 mg/kg (rats; Rattus norvegicus, po, 6 h) | response vs control in vivo at 5 mg/kg (rats; dose 5 mg/kg oral, rat, sodium urinary excretion in 6 h vs controls (control = 100)) | LD50 (in vivo; ip) | LD50 (in vivo; po) | response vs control in vivo at 20 mg/kg (rats; [1]) | response vs control in vivo at 10 mg/kg (rats; dose 10 mg/kg oral, rat, sodium urinary excretion in 6 h vs controls (control = 100))
CC(=O)Nc1nnc(S(N)(=O)=O)s1 [Acetazolamide, acetazolamide, reference compound] | 200% |  |  |  |  | 
CN(C)CC(=O)NN=Cc1c(-c2ccccc2)nc2sccn12 [Example 3] |  | 310% | ~600 mg/kg | ~600 mg/kg |  | 
CN(C)CC(=O)NN=Cc1c(-c2ccc(Cl)cc2)nc2n1CCS2 [Example 11] |  |  | ~600 mg/kg | ~800 mg/kg | 230% | 
Cc1nc2sccn2c1C=NNC(=O)CN(C)C [Example 2] |  |  | ~600 mg/kg | ~1500 mg/kg |  | 
CC(=O)S[C@@H]1CC2=CC(=O)CC[C@]2(C)[C@H]2CC[C@@]3(C)[C@@H](CC[C@@]34CCC(=O)O4)[C@H]12 [Spironolactone, spironolactone, reference compound] |  |  |  |  | 360% | 
NCC(=O)NN=Cc1c(-c2ccccc2)nc2sccn12 [Example 14] |  |  |  | > 1000 mg/kg | 130% | 
CN(C)CC(=O)NN=Cc1c(-c2ccccc2)nc2n1CCS2 [Example 9] |  |  | > 1000 mg/kg | > 3000 mg/kg |  | 230%
CN(C)CC(=O)NN=Cc1c(Cl)nc2sccn12 [Example 1] |  |  | ~250 mg/kg | ~1500 mg/kg | 120% | 
Cc1nc2n(c1C=NNC(=O)CN(C)C)CCS2 [Example 10] |  |  | > 1000 mg/kg | > 1000 mg/kg |  | 
